# Laboratory results as given in US20260167615A1, “COMPOUNDS AND COMPOSITIONS AS GPR52 MODULATORS” (Neurocrine Biosciences, Inc., priority 2022, published 2026).
# Where two headings read alike, the source gives them in different places.
# Target: recombinant human GPR52 (Homo sapiens, UniProt Q9Y2T5)
# Assay: HTRF cAMP assay, GPR52 activity (Example A)
# Assay type: cell-based
# Procedure: Compounds of Formula I were assessed for their ability to modulate GPR52 activity. HTRF CAMP assays were performed using a commercially available assay kit (CAMP Gs HiRange HTRF®, CisBio). Controls and compounds were solubilized in DMSO and 62.5 nanoliters of the diluted compounds were transferred into 384-well NBS assay plates via acoustic or precision low-volume dispensing. Compounds were further diluted to 1× with the addition of 20,000 cells per well. Flp-In™—CHO cells that stably express recombinant human GPR52 were used in the assay.
# Cells were harvested with cell stripper and resuspended in stimulation buffer. After thirty minutes incubation at room temperature, detection reagents were added to each well. Plates were then incubated for an additional 30 minutes at room temperature. CAMP produced by the cells during the first incubation period competes with d2-labeled CAMP for binding to an anti-cAMP monoclonal antibody labeled with europium cryptate. The measured signal was inversely proportional to the concentration of cAMP produced by the cells and this signal was quantified using a PHERAstar® multi-mode plate reader.
# Dose-response curves were generated from the HTRF counts that have been transformed based on a CAMP referenced curve, and then normalized to the positive control. EC50 values were obtained using a nonlinear regression curve-fitting program. […] The Emax (Table 13) is the maximum amount of cAMP (nM) produced by incubation of the cells with 10 μM or 31.6 μM of a test compound. The compound is defined by the top plateau of the sigmoid curve fit. The curve is then normalized to a control compound, in this case 4-(3-(3-fluoro-5-(trifluoromethyl)benzyl)-5-methyl-4,5-dihydro-1H-1,2,4-triazol-1-yl)-2-methylbenzamide (Tokumaru, K., et al., “Design, synthesis, and pharmacological evaluation of 4-azolyl-benzamide derivatives as novel GPR52 agonists”, Bioorganic & Medicinal Chemistry, Volume 25, Issue 12, June 2017, pages 3098-3115), and expressed as a percentage of the Emax of that control compound.
# [1] = Flp-In-CHO cells expressing human GPR52, read-out: average EC50
# [2] = average EC50 (n=1 to 15), Flp-In-CHO cells stably expressing recombinant human GPR52, cAMP HTRF, read-out: EC50 (N=)
# [3] = maximum cAMP at 10 μM or 31.6 μM test compound, as percentage of Emax of control compound 4-(3-(3-fluoro-5-(trifluoromethyl)benzyl)-5-methyl-4,5-dihydro-1H-1,2,4-triazol-1-yl)-2-methylbenzamide
# [4] = percentage of Emax of control compound
# recombinant human GPR52, sequence (Q9Y2T5 whole entry): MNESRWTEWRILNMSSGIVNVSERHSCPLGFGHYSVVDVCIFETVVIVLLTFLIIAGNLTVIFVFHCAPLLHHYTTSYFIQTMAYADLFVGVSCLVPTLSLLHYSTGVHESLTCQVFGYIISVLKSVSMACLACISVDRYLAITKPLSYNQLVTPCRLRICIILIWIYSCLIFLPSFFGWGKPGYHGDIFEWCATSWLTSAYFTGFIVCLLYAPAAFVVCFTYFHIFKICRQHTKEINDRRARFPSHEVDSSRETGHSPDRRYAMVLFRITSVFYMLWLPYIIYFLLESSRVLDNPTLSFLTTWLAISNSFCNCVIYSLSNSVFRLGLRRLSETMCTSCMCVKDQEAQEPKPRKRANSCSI
"EC50 (comparison of position of the nitrogen in the pyridine ring relative to the oxygen linker, read-out: Activity EC50)",EC50 [1],EC50 [2],Emax [3],Emax [4],Emax (%) [3],Compound
2040 nM,–,–,–,–,–,Cc1cc(-c2ccnc(Oc3ccc4c(c3)c(C)nn4C)c2)ccc1C(N)=O
–,270 nM,101 to 1000 nM,106%,106%,–,"CCc1cc(-c2cc(Oc3cnc4c(C)nn(C)c4c3)ccn2)ccc1C(N)=O [Example 1, 4-(4-((1,3-dimethyl-1H-pyrazolo[4,3-b]pyridin-6-yl)oxy)pyridin-2-yl)-2-ethylbenzamide]"
–,–,101 to 1000 nM,98%,–,–,"CCc1cc(-c2cc(Oc3ccc4cnn(C)c4c3)ccn2)ccc1C(N)=O [Example 2, 2-ethyl-4-{4-[(1-methyl-1H-indazol-6-yl)oxy]pyridin-2-yl}benzamide]"
–,83 nM,25 to 100 nM,–,106%,103%,"Cc1cc(-c2cc(Oc3ccc4c(C)nn(C)c4c3)ccn2)ccc1C(N)=O [Example 4, 4-(4-((1,3-dimethyl-1H-indazol-6-yl)oxy)pyridin-2-yl)-2-methylbenzamide]"
–,–,101 to 1000 nM,76%,–,–,"Cc1cc(-c2cc(Oc3ccc4c(cnn4C)c3)ccn2)ccc1C(N)=O [Example 5, 2-methyl-4-(4-((1-methyl-1H-indazol-5-yl)oxy)pyridin-2-yl)benzamide]"
–,–,101 to 1000 nM,110%,–,–,"Cc1cc(-c2cc(Oc3ccc4nn(C)cc4c3)ccn2)ccc1C(N)=O [Example 6, 2-methyl-4-(4-((2-methyl-2H-indazol-5-yl)oxy)pyridin-2-yl)benzamide]"
–,–,1000 to 2000 nM,68%,–,–,"Cc1cc(-c2cc(Oc3cccc4c3cnn4C)ccn2)ccc1C(N)=O [Example 7, 2-methyl-4-(4-((1-methyl-1H-indazol-4-yl)oxy)pyridin-2-yl)benzamide]"
–,–,1000 to 2000 nM,68%,–,–,"Cc1cc(-c2cc(Oc3ccc4ncn(C)c4c3)ccn2)ccc1C(N)=O [Example 8, 2-methyl-4-(4-((1-methyl-1H-benzo[d]imidazol-6-yl)oxy)pyridin-2-yl)benzamide]"
–,–,1000 to 2000 nM,91%,–,–,"Cc1cc(-c2cccc(Oc3ccc4cnn(C)c4c3)n2)ccc1C(N)=O [Example 9, 2-methyl-4-(6-((1-methyl-1H-indazol-6-yl)oxy)pyridin-2-yl)benzamide]"
–,–,101 to 1000 nM,106%,–,–,"Cc1cc(-c2cncc(Oc3ccc4nn(C)cc4c3)n2)ccc1C(N)=O [Example 10, 2-methyl-4-(6-((2-methyl-2H-indazol-5-yl)oxy)pyrazin-2-yl)benzamide]"
–,–,101 to 1000 nM,101%,–,–,"Cc1cc(-c2cncc(Oc3ccc4cnn(C)c4c3)n2)ccc1C(N)=O [Example 11, 2-methyl-4-(6-((1-methyl-1H-indazol-6-yl)oxy)pyrazin-2-yl)benzamide]"
–,–,101 to 1000 nM,103%,–,–,"Cc1cc(-c2cc(Oc3cnc4cnn(C)c4c3)ccn2)ccc1C(N)=O [Example 12, 2-methyl-4-(4-((1-methyl-1H-pyrazolo[4,3-b]pyridin-6-yl)oxy)pyridin-2-yl)benzamide]"
–,–,101 to 1000 nM,97%,–,–,"Cc1cc(-c2cc(Oc3ccn4nccc4c3)ccn2)ccc1C(N)=O [Example 13, 2-methyl-4-(4-(pyrazolo[1,5-a]pyridin-5-yloxy)pyridin-2-yl)benzamide]"
–,–,101 to 1000 nM,93%,–,–,"Cc1cc(-c2nccc(Oc3ccc4cnn(C)c4c3)n2)ccc1C(N)=O [Example 14, 2-methyl-4-(4-((1-methyl-1H-indazol-6-yl)oxy)pyrimidin-2-yl)benzamide]"
–,–,1000 to 2000 nM,72%,–,–,"Cc1cc(-c2cc(N)nc(Oc3ccc4nn(C)cc4c3)c2)ccc1C(N)=O [Example 15, 4-(2-amino-6-((2-methyl-2H-indazol-5-yl)oxy)pyridin-4-yl)-2-methylbenzamide]"
–,–,101 to 1000 nM,107%,–,–,"CCc1cc(-c2cc(Oc3cnc4c(C)nn(C)c4c3)cc(N)n2)ccc1C(N)=O [Example 16, 4-(6-amino-4-((1,3-dimethyl-1H-pyrazolo[4,3-b]pyridin-6-yl)oxy)pyridin-2-yl)-2-ethylbenzamide]"

"EC50 (comparison of position of the nitrogen in the pyridine ring relative to the oxygen linker, read-out: Activity EC50)",EC50 [1],EC50 [2],Emax [3],Emax [4],Emax (%) [3],Compound
–,–,101 to 1000 nM,102%,–,–,"CCc1cc(-c2cc(Oc3cnc4cnn(C)c4c3)cc(N)n2)ccc1C(N)=O [Example 17, 4-(6-amino-4-((1-methyl-1H-pyrazolo[4,3-b]pyridin-6-yl)oxy)pyridin-2-yl)-2-ethylbenzamide]"
–,–,101 to 1000 nM,107%,–,–,"CCc1cc(-c2cc(Oc3ccc4cnn(C)c4c3)cc(N)n2)ccc1C(N)=O [Example 18, 4-(6-amino-4-((1-methyl-1H-indazol-6-yl)oxy)pyridin-2-yl)-2-ethylbenzamide]"
–,–,101 to 1000 nM,90%,–,–,"Cc1cc(-c2cc(Oc3ccc4c(C)nn(C)c4c3)cc(N)n2)ccc1C(N)=O [Example 19, 4-(6-amino-4-((1,3-dimethyl-1H-indazol-6-yl)oxy)pyridin-2-yl)-2-methylbenzamide]"
–,–,101 to 1000 nM,111%,–,–,"CCc1cc(-c2cc(Oc3cc(F)c4cnn(C)c4c3)cc(N)n2)ccc1C(N)=O [Example 20, 4-(6-amino-4-((4-fluoro-1-methyl-1H-indazol-6-yl)oxy)pyridin-2-yl)-2-ethylbenzamide]"
–,–,101 to 1000 nM,99%,–,–,"Cc1cc(-c2cc(Oc3ccc4cnn(C)c4c3)cc(N)n2)ccc1C(N)=O [Example 21, 4-(6-amino-4-((1-methyl-1H-indazol-6-yl)oxy)pyridin-2-yl)-2-methylbenzamide]"
–,–,101 to 1000 nM,123%,–,–,"CCc1cc(-c2cc(Oc3cnc4c(c3)c(C)nn4C)cc(N)n2)ccc1C(N)=O [Example 22, 4-(6-amino-4-((1,3-dimethyl-1H-pyrazolo[3,4-b]pyridin-5-yl)oxy)pyridin-2-yl)-2-ethylbenzamide]"
–,–,101 to 1000 nM,107%,–,–,"Cc1cc(-c2cc(Oc3cnc4c(c3)c(C)nn4C)cc(N)n2)ccc1C(N)=O [Example 23, 4-(6-amino-4-((1,3-dimethyl-1H-pyrazolo[3,4-b]pyridin-5-yl)oxy)pyridin-2-yl)-2-methylbenzamide]"
–,–,101 to 1000 nM,110%,–,–,"CCc1cc(-c2cc(Oc3cnc4c(c3)c(C(F)(F)F)nn4C)cc(N)n2)ccc1C(N)=O [Example 24, 4-(6-amino-4-((1-methyl-3-(trifluoromethyl)-1H-pyrazolo[3,4-b]pyridin-5-yl)oxy)pyridin-2-yl)-2-ethylbenzamide]"
–,83 nM,25 to 100 nM,103%,–,–,"Cc1cc(-c2cc(Oc3ccc4c(C)nn(C)c4c3)ccn2)ccc1C(N)=O [Example 25, 4-(4-((1,3-dimethyl-1H-indazol-6-yl)oxy)pyridin-2-yl)-2-methylbenzamide]"
–,–,25 to 100 nM,75%,–,–,"CCc1cc(-c2cc(Oc3ccc4cnn(C)c4c3)cc3nccn23)ccc1C(N)=O [Example 26, 2-ethyl-4-(7-((1-methyl-1H-indazol-6-yl)oxy)imidazo[1,2-a]pyridin-5-yl)benzamide]"
–,–,101 to 1000 nM,99%,–,–,"CCc1cc(-c2cc(Oc3cnc4cnn(C)c4c3)ccn2)ccc1C(N)=O [Example 27, 2-ethyl-4-(4-((1-methyl-1H-pyrazolo[4,3-b]pyridin-6-yl)oxy)pyridin-2-yl)benzamide]"
–,–,101 to 1000 nM,84%,–,–,"CCc1cc(-c2cc(Oc3cnc4c(C(F)(F)F)nn(C)c4c3)ccn2)ccc1C(N)=O [Example 29, 2-ethyl-4-(4-((1-methyl-3-(trifluoromethyl)-1H-pyrazolo[4,3-b]pyridin-6-yl)oxy)pyridin-2-yl)benzamide]"
–,–,1000 to 2000 nM,87%,–,–,"Cc1nn(C)c2cc(Oc3ccnc(-c4ccc(C(N)=O)c(C(F)(F)F)c4)c3)cnc12 [Example 30, 4-(4-((1,3-dimethyl-1H-pyrazolo[4,3-b]pyridin-6-yl)oxy)pyridin-2-yl)-2-(trifluoromethyl)benzamide]"
–,–,101 to 1000 nM,88%,–,–,"Cc1cc(-c2cccc(Oc3cnc4c(C)nn(C)c4c3)c2)ccc1C(N)=O [Example 31, 3′-((1,3-dimethyl-1H-pyrazolo[4,3-b]pyridin-6-yl)oxy)-3-methyl-[1,1′-biphenyl]-4-carboxamide]"
–,–,101 to 1000 nM,103%,–,–,"CCc1cc(-c2cccc(Oc3cnc4c(C)nn(C)c4c3)c2)ccc1C(N)=O [Example 32, 3′-((1,3-dimethyl-1H-pyrazolo[4,3-b]pyridin-6-yl)oxy)-3-ethyl-[1,1′-biphenyl]-4-carboxamide]"
–,–,101 to 1000 nM,90%,–,–,"Cn1ncc2ncc(Oc3ccnc(-c4ccc(C(N)=O)c(C(F)(F)F)c4)c3)cc21 [Example 33, 4-(4-((1-methyl-1H-pyrazolo[4,3-b]pyridin-6-yl)oxy)pyridin-2-yl)-2-(trifluoromethyl)benzamide]"
